According to US20240041878A1, “APELIN RECEPTOR MODULATORS FOR TREATMENT OF A DISORDER OR DISEASE ASSOCIATED WITH BBB PERMEABILITY” (BioAge Labs, Inc., priority 2022, published 2024):

Columns and labels:
[1] = tested on: Mouse primary astrocytes; test: Astrocyte glutamate uptake; type: cell-based; conditions: RAC+APL [50 nM] versus RAC
Protocol: To stimulate astrocytes into a reactive state found in aging and neurodegenerative diseases per previous publications (Liddelow et al., 2017; Barbar et al., 2020), a combination of the cytokines TNF-α and IL-1α, and complement factor C1q, were added at 30 ng/mL, 3 ng/mL, and 400 ng/mL, respectively, into astrocyte culture media to make 'reactive astrocyte cocktail' (RAC) media. […] Bachem, Cat. #4029110), BAY-11-7082 (50 μM; Abcam, Cat. #ab141228) or equal volume of vehicle (0.01% DMSO in PBS) (hereafter referred to as 'RAC treatment'). […] Fresh HBSS was added to each well and 100 μM glutamate (Sigma, Cat. #G1251) was added to each well. Empty wells not containing cells were filled with HBSS and 100 μM [NT] negative control. Cells were incubated at room temperature for 3 hours before HBSS was collected and glutamate concentration determined by colorimetric assay (Sigma, Cat. #MAK004). Relative change in glutamate uptake was calculated compared to negative control wells.

[2] = tested on: Mouse astrocyte cells; test: CXCL1 and IL-6 ELISA of astrocyte culture media after RAC treatment; type: cell-based; conditions: RAC+APL [50 nM]
Protocol: To stimulate astrocytes into a reactive state found in aging and neurodegenerative diseases per previous publications (Liddelow et al., 2017; Barbar et al., 2020), a combination of the cytokines TNF-α and IL-1α, and complement factor C1q, were added at 30 ng/mL, 3 ng/mL, and 400 ng/mL, respectively, into astrocyte culture media to make 'reactive astrocyte cocktail' (RAC) media. […] Bachem, Cat. #4029110), BAY-11-7082 (50 μM; Abcam, Cat. #ab141228) or equal volume of vehicle (0.01% DMSO in PBS) (hereafter referred to as 'RAC treatment'). Cells in Groups 3-6 were treated with RAC for 24 hours, with or without the test compounds (n=4 per group). • Group 1: Control [CON] • Group 2: CON+BGE-105 (50 nM) [CON+105] • Group 3: Reactive control treated with RAC only [RAC] • Group 4: RAC+BGE-105 (50 nM) [RAC+105] • Group 5: RAC+Pyrm-Apelin-13 (50 nM) • Group 6: RAC+BAY-11-7082 (NF-κB inhibitor; 50 μM) [RAC+BAY] Media from each tested cell group was collected for cytokine release analysis. Cells were lysed for RNA collection and RT-PCR was performed to synthesis cDNA under standard conditions. Next, transcriptome analysis was performed to determine the expression level of astrocyte genes or astrocyte responsive genes. Changes of expression was normalized to β-actin (FIGS. 8 and 9). Exemplary biomarkers include CCL2, CXCL10, CXCL11, CXCL1, CXCL2, CXCL3, CXCL8, EDN1, […]3, CIS, CTRL, C3, CFB, VEGF, and IL-6. For analysis of cytokines secreted by astrocytes, culture media was collected after RAC treatment, centrifuged at 10,000 RPM for 5 minutes to pellet any debris, and supernatant was transferred to a new tube and assayed immediately or frozen at -80° C. For individual analysis of CXCL1 or IL-6 concentrations, cell culture supernatant was diluted 1:50 or 1:10, respectively, and assessed using mouse-specific ELISA kits per manufacturer's protocols (R&D Systems, Cat. #DY453 and #DY406).

(Pyr^1)-Apelin-13 [reference compound]
percentage of glutamate uptake in RAC astrocytes [1]: significantly and statistically increased
CXCL1 concentration/release compared with BGE-105 [50 nM] group [2]: no significant difference
IL-6 concentration/release compared with BGE-105 [50 nM] group [2]: no significant difference
